The text below walks through data of article PMC6478789, “A chemical toolbox for the study of bromodomains and epigenetic signaling” (Nature Communications, 2019).

Read-outs that look alike come from different tables or passages of the source.

Assay [1] concerns the target BRPF1 (Homo sapiens, UniProt P55201). Kind of assay: Temperature shift assay (non-BRD reader domains). Type of assay: binding. To be noted: 10µM compound.
For assay [2], the target named is EP300 (Homo sapiens, UniProt Q09472). Nature of the assay: Histone acetyltransferase (HAT) activity assay. Type of assay: biochemical. To be noted: for activity at 1 µM / activity at 10 µM: read-out: HATs Activity (%).
Target sequence in this assay (Q09472 whole entry, species assumed): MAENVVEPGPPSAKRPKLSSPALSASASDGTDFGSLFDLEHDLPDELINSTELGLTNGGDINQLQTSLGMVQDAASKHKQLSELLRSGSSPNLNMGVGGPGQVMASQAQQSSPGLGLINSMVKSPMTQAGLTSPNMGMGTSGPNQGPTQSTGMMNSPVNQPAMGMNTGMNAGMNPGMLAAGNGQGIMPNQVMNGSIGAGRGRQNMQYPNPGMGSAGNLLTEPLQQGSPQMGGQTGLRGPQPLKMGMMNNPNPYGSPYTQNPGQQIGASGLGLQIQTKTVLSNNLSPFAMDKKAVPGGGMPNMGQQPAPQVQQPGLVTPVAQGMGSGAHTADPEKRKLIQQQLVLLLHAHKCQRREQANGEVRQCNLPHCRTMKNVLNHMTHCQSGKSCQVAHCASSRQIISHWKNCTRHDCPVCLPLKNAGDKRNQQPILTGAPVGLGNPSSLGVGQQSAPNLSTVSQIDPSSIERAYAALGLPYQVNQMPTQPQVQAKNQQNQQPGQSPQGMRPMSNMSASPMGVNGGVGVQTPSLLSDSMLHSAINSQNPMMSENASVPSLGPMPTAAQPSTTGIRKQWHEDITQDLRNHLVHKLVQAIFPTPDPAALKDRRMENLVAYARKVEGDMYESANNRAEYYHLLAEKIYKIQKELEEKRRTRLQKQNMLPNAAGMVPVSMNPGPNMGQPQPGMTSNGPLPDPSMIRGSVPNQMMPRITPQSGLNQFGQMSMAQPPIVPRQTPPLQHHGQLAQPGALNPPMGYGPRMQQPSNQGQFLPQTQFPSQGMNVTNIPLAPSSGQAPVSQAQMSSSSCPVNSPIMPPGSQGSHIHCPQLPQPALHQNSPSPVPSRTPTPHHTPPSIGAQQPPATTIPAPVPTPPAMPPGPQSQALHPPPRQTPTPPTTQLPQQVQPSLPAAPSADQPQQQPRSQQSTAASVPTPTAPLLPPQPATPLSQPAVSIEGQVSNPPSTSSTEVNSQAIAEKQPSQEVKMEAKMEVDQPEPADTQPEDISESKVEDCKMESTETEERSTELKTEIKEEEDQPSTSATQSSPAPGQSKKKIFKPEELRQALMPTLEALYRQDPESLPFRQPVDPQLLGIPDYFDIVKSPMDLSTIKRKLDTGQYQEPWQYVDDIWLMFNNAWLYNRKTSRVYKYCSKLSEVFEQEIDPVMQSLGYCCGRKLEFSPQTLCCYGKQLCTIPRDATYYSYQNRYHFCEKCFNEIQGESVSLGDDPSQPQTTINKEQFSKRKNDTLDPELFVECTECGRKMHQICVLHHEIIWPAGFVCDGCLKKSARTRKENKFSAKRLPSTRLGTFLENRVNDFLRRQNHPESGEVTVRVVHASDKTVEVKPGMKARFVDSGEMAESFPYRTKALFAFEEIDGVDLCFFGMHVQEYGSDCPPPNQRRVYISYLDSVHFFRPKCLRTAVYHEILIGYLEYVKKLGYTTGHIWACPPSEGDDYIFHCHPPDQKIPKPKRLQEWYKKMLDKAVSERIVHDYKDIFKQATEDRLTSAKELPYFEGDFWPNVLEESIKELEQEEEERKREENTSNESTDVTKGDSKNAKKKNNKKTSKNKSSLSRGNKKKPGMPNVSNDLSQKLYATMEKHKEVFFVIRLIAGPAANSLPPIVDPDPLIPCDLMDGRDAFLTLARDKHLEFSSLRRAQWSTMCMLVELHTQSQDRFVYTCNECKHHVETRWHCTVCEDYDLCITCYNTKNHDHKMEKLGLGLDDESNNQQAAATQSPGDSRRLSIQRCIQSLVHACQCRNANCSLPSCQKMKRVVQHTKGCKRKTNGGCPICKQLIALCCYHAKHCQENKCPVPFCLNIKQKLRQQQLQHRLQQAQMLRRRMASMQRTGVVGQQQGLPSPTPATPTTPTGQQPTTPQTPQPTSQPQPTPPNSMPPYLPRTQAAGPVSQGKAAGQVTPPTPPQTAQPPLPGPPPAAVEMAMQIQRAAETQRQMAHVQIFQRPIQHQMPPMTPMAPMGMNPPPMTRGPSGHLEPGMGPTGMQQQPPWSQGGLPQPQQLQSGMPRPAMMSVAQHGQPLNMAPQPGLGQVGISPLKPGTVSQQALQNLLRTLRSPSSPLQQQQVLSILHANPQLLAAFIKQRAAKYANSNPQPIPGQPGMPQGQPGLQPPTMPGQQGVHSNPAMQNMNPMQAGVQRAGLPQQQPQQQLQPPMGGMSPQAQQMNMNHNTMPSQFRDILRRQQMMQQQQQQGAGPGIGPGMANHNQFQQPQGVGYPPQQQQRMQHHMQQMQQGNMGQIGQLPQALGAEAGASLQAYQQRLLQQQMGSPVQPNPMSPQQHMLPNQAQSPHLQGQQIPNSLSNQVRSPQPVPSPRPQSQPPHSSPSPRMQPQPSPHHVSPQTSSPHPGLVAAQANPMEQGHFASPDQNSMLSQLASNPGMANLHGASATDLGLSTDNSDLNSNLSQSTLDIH
The target in assay [3] is T1, HAT1 (Homo sapiens, UniProt O14929).
T1 sequence (O14929 1-419): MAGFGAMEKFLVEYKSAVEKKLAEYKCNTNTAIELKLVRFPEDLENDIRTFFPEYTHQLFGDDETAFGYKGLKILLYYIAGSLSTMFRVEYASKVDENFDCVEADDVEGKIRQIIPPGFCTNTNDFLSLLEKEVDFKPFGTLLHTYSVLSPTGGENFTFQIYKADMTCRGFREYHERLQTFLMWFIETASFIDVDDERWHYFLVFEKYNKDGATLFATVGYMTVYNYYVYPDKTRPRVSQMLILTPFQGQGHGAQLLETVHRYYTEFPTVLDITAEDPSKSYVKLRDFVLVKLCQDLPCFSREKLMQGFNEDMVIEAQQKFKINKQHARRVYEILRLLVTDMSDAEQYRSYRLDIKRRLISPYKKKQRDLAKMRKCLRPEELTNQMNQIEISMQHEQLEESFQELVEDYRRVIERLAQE
Nature of the assay: Histone acetyltransferase (HAT) activity assay. The format is biochemical. Conditions: for activity at 1 µM / activity at 10 µM: read-out: HATs Activity (%).

In assay [4] the target is T2, MYST1 (Homo sapiens, UniProt Q9H7Z6).
T2 sequence (Q9H7Z6 1-458): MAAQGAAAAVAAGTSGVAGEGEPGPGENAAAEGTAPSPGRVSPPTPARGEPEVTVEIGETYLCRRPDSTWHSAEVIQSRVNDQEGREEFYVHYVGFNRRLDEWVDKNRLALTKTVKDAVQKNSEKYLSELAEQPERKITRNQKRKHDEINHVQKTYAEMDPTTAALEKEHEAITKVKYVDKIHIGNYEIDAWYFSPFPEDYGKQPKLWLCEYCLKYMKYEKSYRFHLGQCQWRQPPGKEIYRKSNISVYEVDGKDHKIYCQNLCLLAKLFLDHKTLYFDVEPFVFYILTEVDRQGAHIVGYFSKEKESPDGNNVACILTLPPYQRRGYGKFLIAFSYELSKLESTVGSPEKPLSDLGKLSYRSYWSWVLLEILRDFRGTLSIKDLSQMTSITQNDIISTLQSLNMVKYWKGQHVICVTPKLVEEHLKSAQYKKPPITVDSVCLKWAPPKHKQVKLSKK
Nature of the assay: Histone acetyltransferase (HAT) activity assay. Type of assay: biochemical. Conditions: for activity at 1 µM / activity at 10 µM: read-out: HATs Activity (%).

Assay [5] deals with MYST3 (Homo sapiens, UniProt Q92794). Kind of assay: Histone acetyltransferase (HAT) activity assay. Type of assay: biochemical. Conditions: for activity at 1 µM / activity at 10 µM: read-out: HATs Activity (%).
Assay [6] concerns the target GCN5L2 (Homo sapiens, UniProt Q92830). Kind of assay: Histone acetyltransferase (HAT) activity assay. Type of assay: biochemical. Conditions: for activity at 1 µM / activity at 10 µM: read-out: HATs Activity (%).
For assay [7], the target named is T3, ATAD2B (Homo sapiens, UniProt Q9ULI0).
T3 sequence (Q9ULI0 951-1066 limits assumed): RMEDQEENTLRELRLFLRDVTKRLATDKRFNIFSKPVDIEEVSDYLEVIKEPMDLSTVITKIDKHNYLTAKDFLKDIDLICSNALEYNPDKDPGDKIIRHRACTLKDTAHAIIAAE
Kind of assay: BROMOscan ligand-binding assay.
Excerpt: (§1) BROMOscan is a binding assay based on the well-known KINOMEscan technology. This assay measures the binding of a DNA-tagged bromodomain to an immobilized BRD ligand. If an inhibitor is present, it will compete with the bromodomain binding to the immobilized ligand, resulting in reduction of a quantitative PCR (qPCR) signal in a dose-dependent manner.

For assay [8], the target named is BRDT(2) (Homo sapiens, UniProt Q58F21). Kind of assay: BROMOscan ligand-binding assay. Conditions: BROMOscan Gene Symbol BRDT(2).
Excerpt: as §1
Assay [9] deals with T4, EP300 (Homo sapiens, UniProt Q09472).
T4 sequence (Q09472 1049-1156 limits assumed): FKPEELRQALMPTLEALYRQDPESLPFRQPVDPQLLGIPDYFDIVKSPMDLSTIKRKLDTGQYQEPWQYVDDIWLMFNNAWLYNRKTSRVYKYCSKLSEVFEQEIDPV
Kind of assay: BROMOscan ligand-binding assay. Conditions: BROMOscan Gene Symbol EP300.
Excerpt: as §1

For assay [10], the target named is T5, TRIM24(PHD,BRD) (Homo sapiens, UniProt O15164).
T5 sequence (O15164 824-1006 limits assumed): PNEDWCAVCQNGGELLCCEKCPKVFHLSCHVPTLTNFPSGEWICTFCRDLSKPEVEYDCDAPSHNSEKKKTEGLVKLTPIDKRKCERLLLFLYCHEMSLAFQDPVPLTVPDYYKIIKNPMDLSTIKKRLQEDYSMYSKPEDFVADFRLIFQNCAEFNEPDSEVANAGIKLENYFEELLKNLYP
Kind of assay: BROMOscan ligand-binding assay. Conditions: BROMOscan Gene Symbol TRIM24(PHD,Bromo.).
Excerpt: as §1

GCN5L2, sequence (Q92830 whole entry, species assumed): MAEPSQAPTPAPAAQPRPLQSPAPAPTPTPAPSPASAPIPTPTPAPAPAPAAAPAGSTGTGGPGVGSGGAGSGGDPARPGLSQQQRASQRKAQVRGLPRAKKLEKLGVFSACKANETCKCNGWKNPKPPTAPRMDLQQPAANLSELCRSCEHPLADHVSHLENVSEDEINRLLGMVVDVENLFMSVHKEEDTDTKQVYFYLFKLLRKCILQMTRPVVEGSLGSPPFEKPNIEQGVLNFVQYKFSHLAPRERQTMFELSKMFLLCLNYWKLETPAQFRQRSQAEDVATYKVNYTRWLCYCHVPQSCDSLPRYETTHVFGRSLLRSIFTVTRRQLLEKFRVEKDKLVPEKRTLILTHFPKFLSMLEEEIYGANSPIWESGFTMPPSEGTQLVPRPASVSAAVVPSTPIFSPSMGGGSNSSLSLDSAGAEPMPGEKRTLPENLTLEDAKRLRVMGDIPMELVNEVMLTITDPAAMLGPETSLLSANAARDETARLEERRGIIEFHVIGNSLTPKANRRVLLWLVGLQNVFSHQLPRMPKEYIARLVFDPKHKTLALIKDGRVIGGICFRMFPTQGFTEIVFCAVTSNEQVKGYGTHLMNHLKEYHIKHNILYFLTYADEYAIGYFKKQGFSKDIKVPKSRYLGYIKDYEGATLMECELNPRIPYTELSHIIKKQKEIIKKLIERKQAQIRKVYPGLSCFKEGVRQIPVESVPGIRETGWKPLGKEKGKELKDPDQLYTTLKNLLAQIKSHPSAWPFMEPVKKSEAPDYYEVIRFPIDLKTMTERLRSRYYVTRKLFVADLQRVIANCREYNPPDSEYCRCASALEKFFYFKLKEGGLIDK
BRPF1, sequence (P55201 1085-1168 limits assumed, species assumed): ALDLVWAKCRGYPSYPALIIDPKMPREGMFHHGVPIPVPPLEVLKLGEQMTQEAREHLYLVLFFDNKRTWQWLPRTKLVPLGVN

For `Cc1cc2c(cc1N1C(=O)c3cccc4c(CCCO)ccc(c34)C1=O)n(C)c(=O)n2C` [BAY-299], the “Tm (C) 10µM, temperature shift” value in assay [1] was -2.5 Kelvin. Besides, the activity at 1 µM in assay [2] (1µM) is 95%; in [3] (1µM), 100%; in assay [4] (1µM), 99%; in [5] (1µM), 98%; in [6] (1µM), 99%. The activity at 10 µM in [2] (10µM) came out at 93%; in assay [3] (10µM), 93%; in assay [4] (10µM), 99%; in assay [5] (10µM), 85%; in assay [6] (10µM) it was 103%.
For `Cc1c(NC(=O)c2cc(C(N)=O)nc3cc(F)ccc23)c(C(F)(F)F)nn1Cc1ccc(C(C)(C)C)cc1` [BAY-588], the “Tm (C) 10µM, temperature shift” value in assay [1] is reported as -0.2 Kelvin. Besides, the activity at 1 µM in assay [2] (1µM) turned out to be 103%; in [3] (1µM), 99%; in assay [4] (1µM), 100%; in [5] (1µM), 99%; in assay [6] (1µM), 94%. The activity at 10 µM in assay [2] (10µM) worked out at 99%; in [3] (10µM) it was 97%; in assay [4] (10µM), 93%; in assay [5] (10µM) it was 96%; in assay [6] (10µM) it was 95%.
`COc1cc(Cl)c(C(=O)N[C@@H](CN[C@H]2CC[C@@H](N)CC2)Cc2ccc(C#N)cc2)cc1-c1ccc(CN[C@H](C)c2ccc(C)cc2)o1` [BAY-850]: the “Tm (C) 10µM, temperature shift” value in [1] is reported as -2.2 Kelvin. The activity at 1 µM in [2] (1µM) worked out at 98%; in [3] (1µM), 101%; in assay [4] (1µM), 93%; in [5] (1µM), 96%; in assay [6] (1µM), 99%. The activity at 10 µM in assay [2] (10µM) is 87%; in [3] (10µM) it was 101%; in assay [4] (10µM) it was 94%; in assay [5] (10µM), 97%; in [6] (10µM) it was 102%.
Take `Cc1c(NC(=O)c2cc(C(N)=O)nc3cc(F)ccc23)c(C(F)(F)F)nn1Cc1ccc(C#N)cc1` [BAY-876]: in assay [1], the “Tm (C) 10µM, temperature shift” value is recorded as -0.3 Kelvin. For the same molecule, the activity at 1 µM in assay [2] (1µM) came to 99%; in assay [3] (1µM), 97%; in [4] (1µM), 96%; in [5] (1µM), 99%; in assay [6] (1µM), 100%. Besides, the activity at 10 µM in [2] (10µM) worked out at 95%; in assay [3] (10µM) it was 89%; in [4] (10µM), 91%; in assay [5] (10µM), 101%; in assay [6] (10µM) it was 97%.
The term Kd denotes the constant that tells how readily two partners part at equilibrium. For `Cc1noc(C)c1-c1ccc2c(c1)nc(CCc1ccccc1)n2CCN1CCOCC1` [CBP30-298], the Kd in assay [7] (BROMOscan Gene Symbol ATAD2B) is above 50000 nM; in [7] (read-out: KD (BROMOscan), sheet prints no unit (nM)), above 30000 nM; in assay [8], 6.8 µM; in assay [9], 0.092 µM; in assay [10], 17 µM.
For `CN1C[C@H](Nc2cnn(C)c(=O)c2Br)C[C@H](c2ccccc2)C1` [GSK4027], the “Tm (C) 10µM, temperature shift” value in assay [1] is recorded as -0.8 Kelvin. Also, the activity at 1 µM in assay [2] (1µM) was determined as 93%; in assay [3] (1µM), 102%; in [4] (1µM) it was 102%; in [5] (1µM) it was 101%; in assay [6] (1µM) it was 99%. For the same molecule, the activity at 10 µM in [2] (10µM) came to 90%; in assay [3] (10µM) it was 89%; in assay [4] (10µM), 98%; in [5] (10µM) it was 101%; in assay [6] (10µM), 102%.
As to `COc1ccccc1C(=O)Nc1cc2c(cc1N1CCNC[C@H]1C)n(C)c(=O)n2C` [GSK6853], the “HATs Activity (%)” value in assay [2] (1µM) is given as 98%; in [2] (10µM) it was 104%; in [3] (1µM), 100%; in [3] (10µM), 94%; in assay [4] (1µM), 99%; in [4] (10µM), 101%. Also, the “HATs Activity (%)” value in assay [5] (1µM) was determined as 107%; in assay [5] (10µM), 104%; in assay [6] (1µM) it was 107%; in assay [6] (10µM), 107%.
Regarding `CO[C@H]1CNC[C@@H](OCC2CCC(F)(F)CC2)[C@@H]1Nc1ncc(-c2cncc(C)c2)c2cc(C)c(=O)[nH]c12` [GSK8814], the “Tm (C) 10µM, temperature shift” value in [1] was -0.2 Kelvin. Besides, the activity at 1 µM in [2] (1µM) is 96%; in [3] (1µM) it was 100%; in assay [4] (1µM) it was 99%; in assay [5] (1µM), 96%; in assay [6] (1µM), 102%. The activity at 10 µM was determined as 102% in assay [2] (10µM); 95% in [3] (10µM); 103% in assay [4] (10µM); 102% in assay [5] (10µM); 100% in [6] (10µM).
Take `Cc1nnc2c3ccccc3c(N[C@@H](C)[C@H](c3ccccc3)N(C)C)nn12` [L-Moses]: the “Tm (C) 10µM, temperature shift” value in [1] was -2.7 Kelvin. Moreover, the activity at 1 µM in assay [2] (1µM) was found to be 94%; in assay [3] (1µM), 100%; in [4] (1µM) it was 97%; in [5] (1µM), 92%; in [6] (1µM), 99%. Besides, the activity at 10 µM in [2] (10µM) is 90%; in [3] (10µM), 95%; in assay [4] (10µM), 96%; in assay [5] (10µM), 90%; in assay [6] (10µM) it was 95%.
Take `CN(C)CCCOc1ccc(-c2cc(NCCCn3cccn3)nc(S(C)(=O)=O)n2)cc1` [TP-238]: the “Tm (C) 10µM, temperature shift” value in [1] is -0.3 Kelvin. Further, the activity at 1 µM in [2] (1µM) came out at 99%; in assay [3] (1µM), 93%; in assay [4] (1µM), 99%; in assay [5] (1µM), 97%; in [6] (1µM), 96%. For the same molecule, the activity at 10 µM is 95% in assay [2] (10µM); 100% in assay [3] (10µM); 97% in assay [4] (10µM); 99% in assay [5] (10µM); 92% in assay [6] (10µM).
